Measured values from paper PMC9332213, “Simple Detection of DNA Methyltransferase with an Integrated Padlock Probe” (Biosensors, 2022).

Target: T1, M.SssI (Spiroplasma monobiae, UniProt P15840)
T1 construct: gene sssIM
Assay: padlock probe/RCA fluorescence methyltransferase activity assay with commercial M.SssI ([…] U/mL)
Assay type: biochemical

T1 sequence (P15840 whole entry): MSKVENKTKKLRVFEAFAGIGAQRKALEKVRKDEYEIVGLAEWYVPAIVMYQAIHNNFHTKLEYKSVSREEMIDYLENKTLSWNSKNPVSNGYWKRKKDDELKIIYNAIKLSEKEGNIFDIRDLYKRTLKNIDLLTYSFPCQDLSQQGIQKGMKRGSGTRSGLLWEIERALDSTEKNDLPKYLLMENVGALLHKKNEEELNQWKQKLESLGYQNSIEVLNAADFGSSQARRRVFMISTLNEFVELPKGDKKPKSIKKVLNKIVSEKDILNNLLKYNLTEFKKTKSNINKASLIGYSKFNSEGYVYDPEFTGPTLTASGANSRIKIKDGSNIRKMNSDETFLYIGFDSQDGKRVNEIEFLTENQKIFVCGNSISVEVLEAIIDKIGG

Nc1ncn([C@@H]2O[C@H](CO)[C@@H](O)[C@H]2O)c(=O)n1 [5-Aza, 5-Azacytidine]
IC50: 4.91 µM

O=c1[nH]cc(F)c(=O)[nH]1 [5-F, 5-fluorouracil]
IC50: 8.84 µM
